# Reference: patent US20110111016A1, “NON-DNA BASE-CONTAINING POLYNUCLEOTIDE COMPOSITIONS AND THEIR USE FOR THE MODULATION OF IMMUNE RESPONSES” (priority 2009, published 2011)
# T1: human TLR3 (Homo sapiens, UniProt O15455)
# T1 construct: host or cells: HEK293
# T1 sequence (O15455 24-904): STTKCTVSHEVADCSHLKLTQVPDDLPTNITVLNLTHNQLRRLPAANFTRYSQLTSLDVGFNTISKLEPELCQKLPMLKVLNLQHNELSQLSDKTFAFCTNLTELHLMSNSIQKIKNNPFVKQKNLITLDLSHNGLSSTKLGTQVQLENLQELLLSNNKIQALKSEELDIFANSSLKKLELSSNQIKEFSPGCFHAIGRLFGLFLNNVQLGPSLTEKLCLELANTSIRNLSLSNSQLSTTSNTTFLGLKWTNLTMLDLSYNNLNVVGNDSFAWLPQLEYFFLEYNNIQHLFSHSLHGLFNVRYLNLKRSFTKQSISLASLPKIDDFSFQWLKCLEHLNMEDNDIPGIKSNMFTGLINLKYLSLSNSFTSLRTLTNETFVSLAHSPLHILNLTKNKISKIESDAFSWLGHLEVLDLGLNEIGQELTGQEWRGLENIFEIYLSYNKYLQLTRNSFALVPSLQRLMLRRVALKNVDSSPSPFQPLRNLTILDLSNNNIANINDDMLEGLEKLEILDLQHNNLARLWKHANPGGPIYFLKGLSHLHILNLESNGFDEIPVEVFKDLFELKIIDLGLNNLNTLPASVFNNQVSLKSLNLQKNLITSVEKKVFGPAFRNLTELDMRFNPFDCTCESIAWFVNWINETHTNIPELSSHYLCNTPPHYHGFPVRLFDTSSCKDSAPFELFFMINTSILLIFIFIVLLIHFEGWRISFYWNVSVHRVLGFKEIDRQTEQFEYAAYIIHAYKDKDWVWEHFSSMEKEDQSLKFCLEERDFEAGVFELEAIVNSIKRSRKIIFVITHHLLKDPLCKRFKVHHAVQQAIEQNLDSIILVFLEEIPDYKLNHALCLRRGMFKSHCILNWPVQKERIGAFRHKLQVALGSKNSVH
# B1: S. typhimurium flagellin: hTLR5 positive control (protein)
# chain: AQVINTNSLSLLTQNNLNKSQSALGTAIERLSSGLRINSAKDDAAGQAIANRFTANIKGLTQASRNANDGISIAQTTEGALNEINNNLQRVRELAVQSANSTNSQSDLDSIQAEITQRLNEIDRVSGQTQFNGVKVLAQDNTLTIQVGANDGETIDIDLKQINSQTLGLDTLNVQQKYKVSDTAATVTGYADTTIALDNSTFKASATGLGGTDQKIDGDLKFDDTTGKYYAKVTVTGGTGKDGYYEVSVDKTNGEVTLAGGATSPLTGGLPATATEDVKNVQVANADLTEAKAALTAAGVTGTASVVKMSYTDNNGKTIDGGLAVKVGDDYYSATQNKDGSISINTTKYTADDGTSKTALNKLGGADGKTEVVSIGGKTYAASKAEGHNFKAQPDLAEAAATTTENPLQKIDAALAQVDTLRSDLGAVQNRFNSAITNLGNTVNNLTSARSRIEDSDYATEVSNMSRAQILQQAGTSVLAQANQVPQNVLSLLR
# How the values were obtained:
# Assay type in all cases: cell-based
# NF-κB control cells = assay: NF-κB reporter control cells (secreted alkaline phosphatase); conditions: at 100 ng/mL, 16-20 hours
# Experimental: (§1) Toll-like receptors (TLR) are known to interact with a number of natural and synthetic molecules that can function as immune adjuvants. Examples of these molecules are Poly (I:C) polynucleotides, lipopolysaccharide and CpG-containing polynucleotides. The interaction of non-DNA base-containing polynucleotides (SEQ ID NOs: 1-3) to interact with TLR and induce down-stream signaling was tested by assessing NF-κB activation in HEK293 cells expressing human TLR2, 3, 4, 5, 7, 8 and 9. TLR engagement was determined by measurement of secreted alkaline phosphatase, under the control of a reporter inducible by NF-κB. Appropriate positive controls were used for each TLR. The non-DNA base-containing polynucleotides were dissolved in sterile water at a concentration of 100 μg/mL, and used at a final concentration of 10 μg/mL. HEK293 cells containing the appropriate TLR and NF-κB reporting system (InvivoGen, San Diego, Calif., USA) were placed in wells of 96 well plates (25,000-50,000 cells, in a final volume of 200 μL medium designed for the detection of NF-κB induced secreted alkaline phosphatase expression), and incubated with non-DNA base-containing polynucleotides or positive controls for 16-20 hours. TLR activating activity was determined by measurement of absorbance at 650 nm wavelength using a Coulter AD340C absorbance detector. The results shown are expressed as Optical Density (OD).
# human TLR3 = biological target: T1, human TLR3; assay: NF-κB activation (secreted alkaline phosphatase reporter) in HEK293 cells expressing human TLR3; conditions: HEK293/hTLR3 cell line; at 1 μg/mL; 16-20 hours
# Experimental: as §1
# human TLR5 = biological target: T2, human TLR5 (Homo sapiens, UniProt O60602); assay: NF-κB activation (secreted alkaline phosphatase reporter) in HEK293 cells expressing human TLR5; conditions: HEK293/hTLR5 cell line; at 100 ng/mL; 16-20 hours
# T2 construct: host or cells: HEK293
# Experimental: as §1
# T2 sequence (O60602 21-858): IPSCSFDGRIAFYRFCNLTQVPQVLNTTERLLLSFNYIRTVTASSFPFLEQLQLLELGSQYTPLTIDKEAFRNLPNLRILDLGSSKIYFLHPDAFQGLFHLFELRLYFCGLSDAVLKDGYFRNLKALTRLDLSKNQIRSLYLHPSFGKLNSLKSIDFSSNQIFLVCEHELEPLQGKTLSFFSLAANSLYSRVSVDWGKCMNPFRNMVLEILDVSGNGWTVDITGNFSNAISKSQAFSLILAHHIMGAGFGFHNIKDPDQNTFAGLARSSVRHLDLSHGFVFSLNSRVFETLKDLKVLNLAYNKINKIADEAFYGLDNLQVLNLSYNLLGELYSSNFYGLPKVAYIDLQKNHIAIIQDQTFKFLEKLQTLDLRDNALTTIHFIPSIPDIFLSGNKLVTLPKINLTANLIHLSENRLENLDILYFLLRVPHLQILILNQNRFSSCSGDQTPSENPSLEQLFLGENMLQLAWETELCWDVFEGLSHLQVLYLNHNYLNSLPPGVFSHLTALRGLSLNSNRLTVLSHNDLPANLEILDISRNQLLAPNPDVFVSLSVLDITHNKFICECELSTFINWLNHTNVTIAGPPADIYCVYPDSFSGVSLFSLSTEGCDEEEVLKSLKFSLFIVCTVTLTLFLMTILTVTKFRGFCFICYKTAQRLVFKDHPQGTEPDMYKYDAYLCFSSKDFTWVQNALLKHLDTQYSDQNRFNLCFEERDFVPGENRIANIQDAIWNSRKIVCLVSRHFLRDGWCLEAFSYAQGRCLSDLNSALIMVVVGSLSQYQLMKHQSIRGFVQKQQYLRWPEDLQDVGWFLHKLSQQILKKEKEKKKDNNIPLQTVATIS
molecule,measurement,setting,value
"CCCCCCCCCCCCCC(=O)O[C@@H]1[C@@H](C)[C@@]2(O)[C@@H](C=C(CO)C[C@]3(O)C(=O)C(C)=C[C@@H]23)[C@@H]2C(C)(C)[C@]12OC(C)=O [PMA, reference compound]","Optical Density at 650 nm, NF-κB control cells, positive control",NF-κB control cells,2.765
Poly (I:C) [reference compound],"TLR activation, Optical Density at 650 nm, hTLR3, positive control",human TLR3,2.547
B1,"TLR activation, Optical Density at 650 nm, hTLR5, positive control",human TLR5,2.593
